Laboratory results as given in patent US20050153943A1, “Methods of simultaneously treating mucositis and fungal infection” (priority 2002, published 2005).
Converted amounts (≈) assume the structure as drawn. Where two headings read alike, the source gives them in different places. Each block holds one compound with its values, some of them ahead of it.

Experiments:
[1] = test system: eleven different species of fungi; details: cited from earlier work
Penicillium Species = assay: IC50 and MIC on microplate agar gels (Example 40); type: cell-based; details: agar gel, 0.25-4.00 μg/ml, 30° C., 24 hours, NI = no detectable inhibition
Protocol: (§1) Each drug was dissolved in DMSO (1.0 mg/ml) as a stock solution and stored at −20° C. Just prior to use, each stock solution was thawed and diluted in DMSO to produce 6 different 100× concentrations. Potato dextrose agar was dissolved in distilled water (39 g/L) and sterilized at […] (250° F.) for 15 min. The agar solution was mixed with each drug (in a water bath at 60° C.) to make a series of final concentrations, i.e. 0.00, 0.25, 0.50, 1.00, 2.00, 4.00 μg/ml. The mixtures were then transferred to 24-well plates (1 ml/well). After the gel had formed, the fungus in PBS (spore count=1-5×10^4/ml) was inoculated by pipetting 10 μl onto each gel. The plates were incubated at 30° C. for different times, depending on the requirement of each species, e.g. 24 hours for Penicillium, Rhizopus, Tricothecium, Ulocladium, Absidia, Aspergilus, Caindida, Cunninghamella, 3 days for Scedosporium, and 5 days for Fonsecae and Phialophora.
(§2) “*” indicates better than or similar results to Amphotericin B. “NI” indicates no detectable inhibition.

Ulocladium Species = assay: IC50 and MIC on microplate agar gels (Example 40); type: cell-based; details: agar gel, 0.25-4.00 μg/ml, 30° C., 24 hours, NI = no detectable inhibition
Protocol: as §1, §2

Tricothecium Species = assay: IC50 and MIC on microplate agar gels (Example 40); type: cell-based; details: agar gel, 0.25-4.00 μg/ml, 30° C., 24 hours, NI = no detectable inhibition
Protocol: as §1, §2

Scedosporium Apiospermum = assay: IC50 and MIC on microplate agar gels (Example 40); type: cell-based; details: agar gel, 0.25-4.00 μg/ml, 30° C., 3 days, NI = no detectable inhibition
Protocol: as §1, §2

[2] = test system: Aspergillus fumigatus ATCC 1022; assay: Fungal growth on SABHI agar containing CMT (Example 38); type: cell-based; details: 25 μg/ml, 30° C., growth grade
Protocol: (§3) The following fungi were inoculated onto potato dextrose agar (PDA) from stock cultures and incubated aerobically at 30° C.: Aspergillus [NT] 1022, Penicillium sp. (laboratory isolate), Candida albicans, ATCC 14053, and Rhizopus sp. […] The conidia were suspended in 0.9% saline and the turbidity was adjusted to match a 0.5 MacFarland standard (equivalent to approximately 1.5×10^8 cells). Candida albicans was suspended in saline and adjusted to 0.5 MacFarland in a similar manner. These suspensions were diluted 1:100 in sterile 0.9% saline. SABHI Agar (Difco) pH 7.0 was prepared in 100 ml amounts and sterilized at 121° C. for 15 min. […] SABHI Agar plates of each CMT and SAHBI agar without CMT using dimethylsulphoxide (DMSO) as a control were inoculated with 10 μl of conidia suspension of Aspergillus fumigatus, Penicillium sp. and Rhizopus sp. and 10 μl suspension of Candida albicans prepared as described above. The plates were then incubated aerobically for 24 hour and for 48 hours at 30° C. The results are set forth in Table 1 (24 hr. incubation) and Table 2 (48 hr. incubation). [table]

[3] = test system: Penicillium sp. (laboratory isolate); assay: as above; type: cell-based; details: 25 μg/ml, 30° C., growth grade
Protocol: as §3

Rhizopus sp. = assay: as above; type: cell-based; details: 25 μg/ml, 30° C., growth grade
Protocol: as §3

[4] = test system: Candida albicans, ATCC 14053; assay: as above; type: cell-based; details: 25 μg/ml, 30° C., growth grade
Protocol: as §3

[5] = test system: 11 different species of fungi; assay: Summary of Example 40 over the whole panel; type: cell-based; details: 11 tested fungi, up to 4.00 μg/ml
Protocol: as §1, §2

[6] = test system: BALB/c 3T3 (CCL-163) cells; assay: 3T3 phototoxicity assay (Neutral Red uptake, with/without UVA); details: 5 J/cm^2 UVA vs dark; for PIF 1 (photoirritancy factor, IC50(-UVA)/IC50(+UVA), earlier software): 1 = no measurable phototoxicity, >5 phototoxic potential; for MPE (mean photo effect): <0.1 nonphototoxin, 0.1 to <0.15 probable, >=0.15 clear phototoxin
Phialophora Verrucosa = assay: IC50 and MIC on microplate agar gels (Example 40); type: cell-based; details: Phialophora verrucosa, 120 h; agar gel, 0.25-4.00 μg/ml, 30° C., 5 days; NI = no detectable inhibition; read-out: IC50
Protocol: as §1, §2

Candida Albicans = assay: IC50 and MIC on microplate agar gels (Example 40); type: cell-based; details: Candida albicans; agar gel, 0.25-4.00 μg/ml, 30° C., 24 hours; NI = no detectable inhibition; read-out: IC50
Protocol: as §1, §2

Rhizopus Species = assay: IC50 and MIC on microplate agar gels (Example 40); type: cell-based; details: Rhizopus; agar gel, 0.25-4.00 μg/ml, 30° C., 24 hours; NI = no detectable inhibition; read-out: IC50
Protocol: as §1, §2

Aspergilus Fumigatus = assay: IC50 and MIC on microplate agar gels (Example 40); type: cell-based; details: agar gel, 0.25-4.00 μg/ml, 30° C., 24 hours; NI = no detectable inhibition; read-out: IC50
Protocol: as §1, §2

Cunninghamella Species = assay: IC50 and MIC on microplate agar gels (Example 40); type: cell-based; details: Cunninghamella; agar gel, 0.25-4.00 μg/ml, 30° C., 24 hours; NI = no detectable inhibition; read-out: IC50
Protocol: as §1, §2

Absidia Species = assay: IC50 and MIC on microplate agar gels (Example 40); type: cell-based; details: Absidia; agar gel, 0.25-4.00 μg/ml, 30° C., 24 hours; NI = no detectable inhibition; read-out: IC50
Protocol: as §1, §2

Fonsecae Species = assay: IC50 and MIC on microplate agar gels (Example 40); type: cell-based; details: 120 h; agar gel, 0.25-4.00 μg/ml, 30° C., 5 days; NI = no detectable inhibition; read-out: IC50
Protocol: as §1, §2

Compound: CC1c2cccc(O)c2C(=O)C2=C(O)C3(O)C(=O)C(C(N)=O)=C(O)CC3C(O)C21 (centres unmarked) [COL 8, 4-dedimethylaminodoxycycline]
Anti-fungal activity in vitro (Lu et al.) [1]: weak or no anti-fungal activity | IC50 (Penicillium Species): 2.0 mg/L (≈ 4.98 µM) | MIC (Penicillium Species): >4 mg/L | IC50 (Ulocladium Species): 2.0 mg/L (≈ 4.98 µM) | MIC (Ulocladium Species): >4 mg/L | IC50 (Tricothecium Species): 0.7 mg/L (≈ 1.74 µM) | MIC (Tricothecium Species): 2.0 mg/L (≈ 4.98 µM) | IC50 (Scedosporium Apiospermum): 2.0 mg/L (≈ 4.98 µM) | MIC (Scedosporium Apiospermum): >4 mg/L | Growth at 25 μg/ml compared to control at 48 hours [2]: 4 (Level of growth in the absence of anti-fungal agent (control).) | Growth at 25 μg/ml compared to control at 24 hrs incubation [3]: 3 (25% reduction in growth of colonies compared to control.) | Growth at 25 μg/ml compared to control at 48 hours [3]: 4 (Level of growth in the absence of anti-fungal agent (control).) | Growth at 25 μg/ml compared to control at 24 hrs incubation (Rhizopus sp.): 4 (Level of growth in the absence of anti-fungal agent (control).) | Growth at 25 μg/ml compared to control at 48 hours (Rhizopus sp.): 4 (Level of growth in the absence of anti-fungal agent (control).) | Growth at 25 μg/ml compared to control at 24 hrs incubation [4]: 4 (Level of growth in the absence of anti-fungal agent (control).) | Growth at 25 μg/ml compared to control at 48 hours [4]: 4 (Level of growth in the absence of anti-fungal agent (control).) | Antifungal activity over the panel (summary in words) [5]: had effects on some of these fungi

Compound: 2-CONHCH2-pyrrolidin-1-yl-4-dedimthylaminodoxycycline [COL 807]
PIF 1 (photoirritancy factor, IC50(-UVA)/IC50(+UVA), earlier software) [6]: 40.4 | MPE (mean photo effect) [6]: 0.382

IC50 (Penicillium Species; Penicillium, read-out: IC50): > 4 mg/L | IC50 (Ulocladium Species; read-out: IC50): > 4 mg/L | IC50 (Phialophora Verrucosa): > 4 mg/L | IC50 (Candida Albicans): > 4 mg/L | IC50 (Rhizopus Species): > 4 mg/L | IC50 (Aspergilus Fumigatus): > 4 mg/L | IC50 (Cunninghamella Species): > 4 mg/L | IC50 (Absidia Species): > 4 mg/L | IC50 (Fonsecae Species): > 4 mg/L | IC50 (Tricothecium Species; read-out: IC50): 4 mg/L (≈ 9 µM) | MIC (Tricothecium Species; read-out: MIC): > 4 mg/L | IC50 (Scedosporium Apiospermum; Scedosporium apiospermum, 72 h, read-out: IC50): > 4 mg/L
Compound: C[C@H]1c2cccc(O)c2C(=O)C2=C(O)[C@]3(O)C(=O)C(C(N)=O)=C(O)[C@@H](N(C)C)[C@@H]3[C@@H](O)[C@@H]21 [Doxycycline, 6α-deoxy-5-hydroxytetracycline, reference compound]

Compound: CN(C)[C@@H]1C(O)=C(C(N)=O)C(=O)[C@@]2(O)C(O)=C3C(=O)c4c(O)cccc4[C@@](C)(O)[C@H]3C[C@@H]12 [Tetracycline, reference compound]
PIF 1 (photoirritancy factor, IC50(-UVA)/IC50(+UVA), earlier software) [6]: 5.38 | MPE (mean photo effect) [6]: 0.340

Compound: CN(C)c1ccc2c(c1O)C(=O)C1=C(O)C3(O)C(=O)C(C(N)=O)=C(O)CC3CC1C2 (centres unmarked) [COL 306, 9-dimethylamino-6-demethyl-6-deoxy-4-dedimethylaminotetracycline]
Growth at 25 μg/ml compared to control at 24 hrs incubation ([2]; 24 hrs): 1 (75% reduction in growth in colonies compared to control.) | Growth at 25 μg/ml compared to control at 48 hours [2]: 4 (Level of growth in the absence of anti-fungal agent (control).) | Growth at 25 μg/ml compared to control at 24 hrs incubation [3]: 3 (25% reduction in growth of colonies compared to control.) | Growth at 25 μg/ml compared to control at 48 hours [3]: 4 (Level of growth in the absence of anti-fungal agent (control).) | Growth at 25 μg/ml compared to control at 24 hrs incubation (Rhizopus sp.): 4 (Level of growth in the absence of anti-fungal agent (control).) | Growth at 25 μg/ml compared to control at 48 hours (Rhizopus sp.): 4 (Level of growth in the absence of anti-fungal agent (control).) | Growth at 25 μg/ml compared to control at 24 hrs incubation [4]: 3 (25% reduction in growth of colonies compared to control.) | Growth at 25 μg/ml compared to control at 48 hours [4]: 4 (Level of growth in the absence of anti-fungal agent (control).)
